In ChEMBL document CHEMBL3102775, “UK-1 and structural analogs are potent inhibitors of hepatitis C virus replication” (Bioorg Med Chem Lett, 2014):
Calls of active or inactive are those of the source. The rule behind the calls is not given here.

What was measured:
[1] = tested on: Human immunodeficiency virus 1; assay: Antiviral activity against HIV1; assay type: functional, organism-based
[2] = Selectivity index, ratio of CC50 for human Huh7ET cells to EC50 for HCV infected in human Huh7ET cells; set-up: species or system Huh-7
[3] = Cytotoxicity against human Huh7ET cells by neutral red assay; assay type: cell-based, Huh-7
Hepacivirus hominis = assay: Inhibition of HCV NS5B RNA dependent RNA polymerase at 100 uM
Hepatitis C virus [4] = assay: Antiviral activity against HCV infected in human Huh7ET cells assessed as inhibition of viral replication by luciferase reporter gene assay/RNA blot hybridization analysis; assay type: functional, organism-based, Hepacivirus hominis; conditions: Huh-7
[5] = Inhibition of HCV ATPase activity of NS3 NTPase/helicase domain expressed in Escherichia coli BL21 after 30 mins by thin layer chromatography in presence of [gamma-32P]ATP; set-up: species or system Hepacivirus hominis
[6] = Inhibition of HCV NS3 NTPase/helicase domain expressed in Escherichia coli BL21 using dsRNA as substrate assessed as strand separation of [32P]-labeled oligonucleotides after 30 mins by SDS-gel electrophoresis; set-up: species or system Hepacivirus hominis
[7] = Inhibition of HCV NS3 NTPase/helicase domain expressed in Escherichia coli BL21 using dsDNA as substrate assessed as strand separation of [32P]-labeled oligonucleotides after 30 mins by SDS-gel electrophoresis; set-up: species or system Hepacivirus hominis
[8] = Inhibition of Dengue virus helicase
[9] = Binding affinity to double stranded DNA assessed as effect on Eco-RI-digested pT7-7 plasmid mobilization at 20 to 500 uM after 60 mins by agarose gel mobility assay
[10] = Binding affinity to double stranded RNA assessed as effect on Eco-RI-digested pT7-7 plasmid mobilization at 20 to 500 uM after 60 mins by agarose gel mobility assay
[11] = Selectivity index, ratio of CC50 for human Huh7ET cells by luciferase reporter gene assay to EC50 for HCV infected in human Huh7ET cells by luciferase reporter gene assay; set-up: species or system Huh-7
Hepatitis C virus [12] = assay: Antiviral activity against HCV infected in human Huh7ET cells assessed as inhibition of viral replication by luciferase reporter gene assay; assay type: functional, organism-based, Hepacivirus hominis; conditions: Huh-7
[13] = Cytotoxicity against human Huh7ET cells by luciferase reporter gene assay; assay type: cell-based; conditions: huh-7

O=C(O)c1cccc2oc(-c3ccccc3O)nc12
Activity [1]: inactive | Ratio CC50/EC50 [2]: 6.6 | CC50 ([3]; huh-7): 3.5 µM | inhibition (Hepacivirus hominis): < 30% | EC50 (Hepatitis C virus [4]): 0.53 µM | IC50 [5]: > 1200 µM | IC50 [6]: > 1800 µM | IC50 [7]: > 1800 µM | IC50 [8]: > 700 µM

COC(=O)c1cccc2oc(-c3ccc4ccc(OCc5ccccc5)cc4c3O)nc12
Activity [9]: inactive | Activity [1]: inactive | Activity [10]: inactive | Ratio CC50/EC50 [2]: >37 | CC50 ([3]; Huh7ET cells): > 20 µM | inhibition (Hepacivirus hominis): < 30% | EC50 (Hepatitis C virus [4]): 0.54 µM | IC50 [5]: > 1200 µM | IC50 [6]: 20 µM | IC50 [7]: 2.6 µM | IC50 [8]: > 700 µM

COC(=O)c1cccc2oc(-c3ccc4c(OCc5ccccc5)cccc4c3O)nc12
Activity [9]: inactive | Activity [1]: inactive | Activity [10]: inactive | Ratio CC50/EC50 [2]: >10 | CC50 ([3]; Huh7ET cells): > 20 µM | inhibition (Hepacivirus hominis): < 30% | EC50 (Hepatitis C virus [4]): 2.1 µM | IC50 [5]: > 1200 µM | IC50 [6]: 20 µM | IC50 [7]: 3.8 µM | IC50 [8]: > 700 µM

COC(=O)c1cccc2oc(-c3cccc4oc(-c5ccccc5O)nc34)nc12
Ratio CC50/EC50 [2]: 22 | CC50 ([3]; huh-7): 17 µM | inhibition (Hepacivirus hominis): < 30% | EC50 (Hepatitis C virus [4]): 0.77 µM | IC50 [5]: > 1200 µM | IC50 [6]: > 1200 µM | IC50 [7]: 380 µM | IC50 [8]: > 700 µM

CNC(=O)c1cccc2oc(-c3ccccc3O)nc12
Ratio CC50/EC50 [11]: 4.5 | EC50 (Hepatitis C virus [12]): 1.4 µM | Activity [1]: inactive | CC50 [13]: 6.3 µM | inhibition (Hepacivirus hominis): < 30% | IC50 [5]: > 1200 µM | IC50 [6]: > 1800 µM | IC50 [7]: > 1800 µM | IC50 [8]: > 700 µM

COC(=O)c1cccc2oc(-c3ccccc3O)nc12
Activity [1]: inactive | Ratio CC50/EC50 [2]: 11 | CC50 ([3]; huh-7): 5.4 µM | inhibition (Hepacivirus hominis): < 30% | EC50 (Hepatitis C virus [4]): 0.5 µM | IC50 [5]: > 1200 µM | IC50 [6]: > 1800 µM | IC50 [7]: > 1800 µM | IC50 [8]: > 700 µM

COC(=O)c1cccc2oc(-c3ccc4ccccc4c3O)nc12
Activity [1]: inactive | Ratio CC50/EC50 [2]: 4.7 | CC50 ([3]; huh-7): 2.5 µM | inhibition (Hepacivirus hominis): < 30% | EC50 (Hepatitis C virus [4]): 0.53 µM | IC50 [5]: > 1200 µM | IC50 [6]: 590 µM | IC50 [7]: 540 µM | IC50 [8]: > 700 µM
